The text below walks through data of ChEMBL document CHEMBL1201862, “PubChem BioAssay data set” (2004).

Some test systems named below: A498; CAKI-1; COLO 205; HCT-15; HOP-62; HOP-92; HT-29; IGROV-1; K562; M14; NCI-H460; NCI-H522; RPMI-8226; RXF 393; SK-OV-3; SN12C; SNB-75; UO-31.
Holding throughout (experiment): inhibition of tumour cell growth, NCI panel, 48 h

Molecules are shown by their SMILES.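 Values below derive from 48-hour exposures of cells grown in 96-well plates, with endpoints linearly interpolated between the two concentrations bracketing the appropriate inhibition level. GI50 = concentration required for 50% inhibition of growth.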 Active and inactive are the calls of the source. Cut-off read from the data, not from the text of the source: active = GI50 up to about 1.1 µM and inactive = higher.

As to `O=C(CCN1CCN(c2ccccc2)CC1)N1CCc2c([nH]c3ccccc23)C1c1cccnc1` (stereo unspecified), the GI50 in the experiment with A498 was 19.1 µM (inactive); with CAKI-1, 18.1 µM (inactive); in the experiment with COLO 205 it was 13.5 µM (inactive); in the experiment with HCT-15 it was 15.2 µM; with HOP-62, 20.8 µM (inactive); in the experiment on HOP-92, 18.5 µM (inactive). The GI50 with HT-29 is 15 µM (inactive); with IGROV-1, 39.7 µM (inactive); with K562, 15.9 µM (inactive); with M14 it was 15.8 µM (inactive); with NCI-H460, 16.6 µM (inactive); in the experiment with NCI-H522, 15.4 µM (inactive). Also, the GI50 was > 10 µM (inactive) in the experiment with RPMI-8226; 24.6 µM (inactive) with RXF 393; 18.1 µM (inactive) in the experiment on SK-OV-3; 15.2 µM (inactive) in the experiment on SN12C; 28.8 µM (inactive) in the experiment with SNB-75; 11.5 µM (inactive) with UO-31.
Regarding `CC12CCC([C@H](N3CCOCC3)/C1=N\OCCN1CCCC1)C2(C)C` (stereo partly specified), the GI50 is > 100 µM (inactive) in the experiment on A498; > 100 µM (inactive) in the experiment on CAKI-1; > 100 µM (inactive) in the experiment on COLO 205; more than 100 µM in the experiment with HCT-15; > 100 µM (inactive) with HOP-62; > 100 µM (inactive) in the experiment with HOP-92. Moreover, the GI50 with HT-29, with IGROV-1, in the experiment with K562, in the experiment on M14, with NCI-H460 and in the experiment with NCI-H522 was > 100 µM (inactive) in each case. For the same compound, the GI50 in the experiment on RPMI-8226, in the experiment on RXF 393, in the experiment with SK-OV-3, in the experiment on SN12C, with SNB-75 and in the experiment on UO-31 was > 100 µM (inactive) each time.
Take `CC(=O)O[C@H]1CCC2[C@@H]3CCC4c5nonc5CC[C@]4(C)C3CC[C@@]21C` (stereo partly specified): the GI50 with A498 was > 10 µM (inactive); in the experiment on CAKI-1, > 10 µM (inactive); with COLO 205 it was > 10 µM (inactive); with HCT-15 it was more than 10 µM; with HOP-62, > 10 µM (inactive); with HOP-92 it was > 10 µM (inactive). The GI50 in the experiment on HT-29, with IGROV-1, with K562, with M14, in the experiment on NCI-H460 and with NCI-H522 was > 10 µM (inactive) each time. The GI50 in the experiment on RXF 393 was > 10 µM (inactive); in the experiment on SK-OV-3, > 10 µM (inactive); with SN12C, > 10 µM (inactive); in the experiment on SNB-75, 51.3 µM (inactive); with UO-31 it was > 10 µM (inactive).
With `COc1cc(C(=O)C/C(CCC(=O)Nc2ccc(Cl)cc2Cl)=N/Nc2nnc(C)n2N)ccc1O`, the GI50 in the experiment with A498 is 92.7 µM (inactive); in the experiment with CAKI-1 it was 45.9 µM (inactive); with COLO 205, > 100 µM (inactive); in the experiment on HCT-15, more than 100 µM; in the experiment with HOP-62 it was > 100 µM (inactive); with HOP-92, > 100 µM (inactive). In addition, the GI50 in the experiment with HT-29 is > 100 µM (inactive); in the experiment on IGROV-1, > 100 µM (inactive); in the experiment with K562, > 10 µM (inactive); in the experiment with M14 it was > 100 µM (inactive); in the experiment with NCI-H460, > 100 µM (inactive); in the experiment with NCI-H522 it was > 100 µM (inactive). Also, the GI50 in the experiment with RPMI-8226, in the experiment with RXF 393, in the experiment on SK-OV-3, with SN12C, in the experiment on SNB-75 and in the experiment on UO-31 was > 100 µM (inactive) throughout.
On to `CC1=Nc2ccccc2S(=O)(=O)N1`, for which the GI50 in the experiment with A498 was > 100 µM (inactive); in the experiment on CAKI-1, > 100 µM (inactive); in the experiment on COLO 205, > 100 µM (inactive); in the experiment with HCT-15, more than 100 µM; in the experiment on HOP-62, > 100 µM (inactive); in the experiment on HOP-92, > 100 µM (inactive). For the same compound, the GI50 with HT-29, in the experiment with IGROV-1, with K562, in the experiment with M14, in the experiment with NCI-H460 and in the experiment on NCI-H522 was > 100 µM (inactive) in each case. Further, the GI50 in the experiment with RXF 393, with SK-OV-3, with SN12C, in the experiment with SNB-75 and in the experiment on UO-31 was > 100 µM (inactive) throughout.
As for `CNC(SC)=C1C(=O)OC(C)(C)OC1=O`, the GI50 was > 100 µM (inactive) with A498; > 100 µM (inactive) in the experiment with CAKI-1; 45.8 µM (inactive) with COLO 205; 19.8 µM with HCT-15; > 100 µM (inactive) in the experiment on HOP-62; > 100 µM (inactive) with HOP-92. Further, the GI50 is > 100 µM (inactive) with HT-29; > 100 µM (inactive) in the experiment on IGROV-1; > 100 µM (inactive) in the experiment on K562; > 100 µM (inactive) in the experiment with M14; 50 µM (inactive) in the experiment with NCI-H460; > 100 µM (inactive) with NCI-H522. Also, the GI50 in the experiment on RPMI-8226 is > 100 µM (inactive); in the experiment on RXF 393, 68.9 µM (inactive); with SK-OV-3 it was > 100 µM (inactive); in the experiment with SN12C, > 100 µM (inactive); with SNB-75 it was > 100 µM (inactive); in the experiment on UO-31, > 100 µM (inactive).
`COC(=O)c1cc2cc(OC)c(OC)cc2cc(C(=O)OC)c1=O`: the GI50 in the experiment on A498 was > 100 µM (inactive); in the experiment with CAKI-1 it was > 100 µM (inactive); in the experiment with COLO 205 it was > 100 µM (inactive); in the experiment with HCT-15, more than 100 µM; in the experiment with HOP-62 it was > 100 µM (inactive); in the experiment with HOP-92, > 100 µM (inactive). Moreover, the GI50 in the experiment on HT-29, with IGROV-1, in the experiment on K562, in the experiment on M14, in the experiment with NCI-H460 and with NCI-H522 was > 100 µM (inactive) throughout. Moreover, the GI50 with RPMI-8226, in the experiment on RXF 393, in the experiment on SK-OV-3, in the experiment with SN12C, with SNB-75 and in the experiment on UO-31 was > 100 µM (inactive) throughout.
With `N=C1NC2(O)C(=O)c3ccccc3C2(O)N1` (stereo unspecified), the GI50 was > 100 µM (inactive) with A498; > 100 µM (inactive) in the experiment with CAKI-1; > 100 µM (inactive) in the experiment on COLO 205; more than 100 µM in the experiment with HCT-15; > 100 µM (inactive) with HOP-62; > 100 µM (inactive) with HOP-92. In addition, the GI50 in the experiment on HT-29, with IGROV-1, in the experiment on K562, in the experiment on M14, in the experiment with NCI-H460 and in the experiment with NCI-H522 was > 100 µM (inactive) throughout. The GI50 with RPMI-8226, with RXF 393, with SK-OV-3, in the experiment with SN12C and with SNB-75 was > 100 µM (inactive) each time.
